Results: patent publication US7205433B2, “Crystal of amino acid ester salt and process for producing the same” (Ajinomoto Co., Inc., priority 2002, dated 2007)

What was measured:
Format in all cases: physicochemical
[1] = Experimental Example 4: comparison of hygroscopicity by weight gain over time (40 to 46% RH); settings: 24° C.
Procedure: The L-Ala-OEt HCl salt, L-Ala-OEt MsOH salt, L-Ala-OEt BsOH salt, L-Ala-OEt 4-CBS salt, L-Ala-OEt 4-EBS salt, L-Ala-OEt 2,4-DMBS salt, and L-Ala-OEt 2,5-DMBS salt were measured in an amount of about 0.3 g each, left standing in a thermostatic chamber at a temperature of 24° C. and a humidity of 40 to 46% RH, and the hygroscopicity was compared based on the weight gain with the lapse of time. A part of the crystal of the L-Ala-OEt HCl salt was liquefied in 30 minutes, and the liquefied portion increased thereafter with the lapse of time. After 100 minutes, the whole mass became like a sherbet.

[2] = Experimental Example 1: comparison of hygroscopicity by weight gain over time (44 to 45% RH); settings: 22 to 24° C.
Procedure: L-Ala-OEt HCl salt and L-Ala-OEt MsOH salt were measured into in a glass container in an amount of 1.6 g each, dried in vacuo at 30° C. for 5 hours, left under conditions of temperature: 22 to 24° C., humidity: 44 to 45% RH, and then the hygroscopicity was compared based on the weight gain over the lapse of time. […] The liquefied portion increased with the lapse of time, and the entire salt became liquid 750 minutes later with no observable crystal.

[3] = Experimental Example 2: comparison of hygroscopicity by weight gain over time (62 to 64% RH); settings: 24° C.
Procedure: In the same manner as in Experimental Example 1, L-Ala-OEt MsOH salt and L-Ala-OMe HCl salt were measured into a glass container in an amount of 0.6 g each, left under conditions of temperature: 24° C., humidity: 62 to 64% RH, and then the hygroscopicity was compared based on the weight gain with the lapse of time.

[4] = Experimental Example 5: comparison of hygroscopicity by weight gain over time (60 to 66% RH); settings: 24 EC
Procedure: The L-Ala-OMe HCl salt, L-Ala-OEt MsOH salt, L-Ala-OEt BsOH salt, L-Ala-OEt 4-CBS salt, L-Ala-OEt 4-EBS salt, L-Ala-OEt 2,4-DMBS salt, and L-Ala-OEt 2,5-DMBS salt were measured in an amount of about 0.3 g each, left standing in a thermostatic chamber at a temperature of 24 EC and a humidity of 60 to 66% RH, and the hygroscopicity was compared based on the weight gain with the lapse of time.

[5] = Experimental Example 7: evaluation of hygroscopicity by weight gain over time (60 to 66% RH); settings: 24 EC
Procedure: The L-Ala-OMe HCl salt, L-Ala-OMe 4-EBS salt, L-Ala-OMe 2,4-DMBS salt, and L-Ala-OMe 2,5-DMBS salt were measured in an amount of about 0.3 g each, left standing in a thermostatic chamber at temperature of 24 EC and a humidity of 60 to 66% RH, and the hygroscopicity was compared based on the weight gain with the lapse of time. A part of the crystal of the L-Ala-OMe HCl salt was liquefied in 10 minutes, and the entirety became a sherbet in 20 minute. The liquefied portion increased thereafter with the lapse of time. After 80 minutes, the whole was liquefied.

With `CCOC(=O)[C@H](C)N.Cl` [L-Ala-OEt HCl salt, alanine ethyl ester hydrochloride] the “time until a part of the crystal was liquefied” value (from here on “time until a part”) [1] was 30 min, the “time until the whole mass became like a sherbet” value [1] was 100 min and the “weight increase rate (%)” value ([1]; 0 minutes) was 0.00%. The “weight increase rate (%)” value ([1]; 15 minutes) was 2.63%, the “weight increase rate (%)” value ([1]; 30 minutes) was 4.56% and the “weight increase rate (%)” value ([1]; 45 minutes) was 6.42%. For the same molecule, the “weight increase rate (%)” value ([1]; 60 minutes) was 7.76%, the “weight increase rate (%)” value ([1]; 75 minutes) was 8.82% and the “weight increase rate (%)” value ([1]; 90 minutes) was 9.53%. The “weight increase rate (%)” value ([1]; 120 minutes) was 9.89%, the “weight increase rate (%)” value ([1]; 150 minutes) was 10.39% and the “weight increase rate (%)” value ([1]; 180 minutes) was 10.69%. For the same molecule, the “time to liquefaction of a part of the crystals” value [2] was 60 min, the “time until the entire salt became liquid” value [2] was 750 min and the “weight increase rate (% relative to initial weight)” value ([2]; 0 minutes) was 0.00%. For the same molecule, the “weight increase rate (% relative to initial weight)” value ([2]; 1 minutes) was 1.63%, the “weight increase rate (% relative to initial weight)” value ([2]; 2 minutes) was 1.67% and the “weight increase rate (% relative to initial weight)” value ([2]; 3 minutes) was 1.72%. For the same molecule, the “weight increase rate (% relative to initial weight)” value ([2]; 4 minutes) was 1.73%, the “weight increase rate (% relative to initial weight)” value ([2]; 6 minutes) was 1.80% and the “weight increase rate (% relative to initial weight)” value ([2]; 10 minutes) was 1.95%. For the same molecule, the “weight increase rate (% relative to initial weight)” value ([2]; 15 minutes) was 2.07%, the “weight increase rate (% relative to initial weight)” value ([2]; 25 minutes) was 2.29% and the “weight increase rate (% relative to initial weight)” value ([2]; 35 minutes) was 2.55%. The “weight increase rate (% relative to initial weight)” value ([2]; 50 minutes) was 2.88%, the “state of the crystals” value ([2]; 60 minutes) was “(partly liquefied)” and the “weight increase rate (% relative to initial weight)” value ([2]; 60 minutes) was 3.09%. The “weight increase rate (% relative to initial weight)” value ([2]; 75 minutes) was 3.38%, the “weight increase rate (% relative to initial weight)” value ([2]; 90 minutes) was 3.63% and the “weight increase rate (% relative to initial weight)” value ([2]; 120 minutes) was 4.10%. The “weight increase rate (% relative to initial weight)” value ([2]; 150 minutes) was 4.41%, the “weight increase rate (% relative to initial weight)” value ([2]; 180 minutes) was 4.89% and the “state of the crystals” value ([2]; 750 minutes) was “(whole liquid)”. For the same molecule, the “weight increase rate (% relative to initial weight)” value ([2]; 750 minutes) was 14.37%.

With `COC(=O)[C@H](C)N.Cl` [L-Ala-OMe HCl salt, alanine methyl ester hydrochloride, reference compound] the “time to liquefaction of a part of the crystals” value [3] was 20 min, the “time until the entire salt became liquid” value [3] was 155 min and the “weight increase rate (% relative to initial weight)” value ([3]; 0 minutes) was 0.00%. The “weight increase rate (% relative to initial weight)” value ([3]; 10 minutes) was 0.11%, the “state of the crystals” value ([3]; 20 minutes) was “(partly liquefied)” and the “weight increase rate (% relative to initial weight)” value ([3]; 20 minutes) was 0.54%. The “weight increase rate (% relative to initial weight)” value ([3]; 35 minutes) was 1.04%, the “weight increase rate (% relative to initial weight)” value ([3]; 50 minutes) was 1.67% and the “state of the crystals” value ([3]; 65 minutes) was “(whole sherbet)”. For the same molecule, the “weight increase rate (% relative to initial weight)” value ([3]; 65 minutes) was 2.27%, the “weight increase rate (% relative to initial weight)” value ([3]; 80 minutes) was 2.83% and the “weight increase rate (% relative to initial weight)” value ([3]; 95 minutes) was 3.36%. For the same molecule, the “weight increase rate (% relative to initial weight)” value ([3]; 110 minutes) was 3.97%, the “weight increase rate (% relative to initial weight)” value ([3]; 125 minutes) was 4.54% and the “weight increase rate (% relative to initial weight)” value ([3]; 140 minutes) was 5.13%. The “state of the crystals” value ([3]; 155 minutes) was “(whole liquid)”, the “weight increase rate (% relative to initial weight)” value ([3]; 155 minutes) was 5.48% and the “weight increase rate (% relative to initial weight)” value ([3]; 170 minutes) was 6.02%. The “weight increase rate (% relative to initial weight)” value ([3]; 185 minutes) was 6.56%, the “weight increase rate (% relative to initial weight)” value ([3]; 200 minutes) was 7.03% and the “time until a part” value [4] was 35 min. The “time until the whole mass was like a sherbet” value [4] was 125 min, the “weight increase rate (%)” value ([4]; 0 minutes) was 0.00% and the “weight increase rate (%)” value ([4]; 10 minutes) was 3.03%. For the same molecule, the “weight increase rate (%)” value ([4]; 20 minutes) was 4.85%, the “weight increase rate (%)” value ([4]; 35 minutes) was 7.30% and the “weight increase rate (%)” value ([4]; 50 minutes) was 8.84%. The “weight increase rate (%)” value ([4]; 65 minutes) was 10.42%, the “weight increase rate (%)” value ([4]; 80 minutes) was 11.65% and the “weight increase rate (%)” value ([4]; 95 minutes) was 12.77%. The “weight increase rate (%)” value ([4]; 110 minutes) was 13.69%, the “weight increase rate (%)” value ([4]; 125 minutes) was 14.74% and the “weight increase rate (%)” value ([4]; 140 minutes) was 15.46%. For the same molecule, the “weight increase rate (%)” value ([4]; 155 minutes) was 16.23%, the “weight increase rate (%)” value ([4]; 170 minutes) was 16.88% and the “weight increase rate (%)” value ([4]; 185 minutes) was 17.43%. For the same molecule, the “weight increase rate (%)” value ([4]; 200 minutes) was 17.77%, the “time until a part” value [5] was 10 min and the “time until the entirety became a sherbet” value [5] was 20 min. The “time until the whole was liquefied” value [5] was 80 min, the “weight increase rate (%)” value ([5]; 0 min) was 0.00% and the “state of the crystals” value ([5]; 10 min) was “(partly liquefied)”. For the same molecule, the “weight increase rate (%)” value ([5]; 10 min) was 6.74%, the “state of the crystals” value ([5]; 20 min) was “(sherbet state)” and the “weight increase rate (%)” value ([5]; 20 min) was 10.06%. The “weight increase rate (%)” value ([5]; 35 min) was 12.52%, the “weight increase rate (%)” value ([5]; 50 min) was 14.31% and the “weight increase rate (%)” value ([5]; 65 min) was 15.69%. For the same molecule, the “state of the crystals” value ([5]; 80 min) was “(entirely liquefied)”, the “weight increase rate (%)” value ([5]; 80 min) was 17.16% and the “weight increase rate (%)” value ([5]; 95 min) was 18.31%. The “weight increase rate (%)” value ([5]; 110 min) was 19.42%, the “weight increase rate (%)” value ([5]; 125 min) was 20.54% and the “weight increase rate (%)” value ([5]; 140 min) was 21.66%. For the same molecule, the “weight increase rate (%)” value ([5]; 155 min) was 22.62%, the “weight increase rate (%)” value ([5]; 170 min) was 23.55% and the “weight increase rate (%)” value ([5]; 185 min) was 24.41%. For the same molecule, the “weight increase rate (%)” value ([5]; 200 min) was 25.14%.
